Assay results from ChEMBL document CHEMBL5346961, “Discovery and Evaluation of 3-Quinoxalin Urea Derivatives as Potent, Selective, and Orally Available ATM Inhibitors Combined with Chemotherapy for the Treatment of Cancer via Goal-Oriented Molecule Generation and Virtual Screening” (J Med Chem, 2023).
Active and inactive are the calls of the source. The rule behind the calls is not given here.

Experiments:
[1] = Metabolic stability in human liver microsomes assessed as clearance at 1 uM in presence of NADPH-regenerating system by LC-MS/MS analysis; type: ADME, Microsome
[2] = Metabolic stability in human liver microsomes assessed as half life at 1 uM in presence of NADPH-regenerating system by LC-MS/MS analysis; type: ADME, Microsome
[3] = target: Serine-protein kinase ATM (Homo sapiens, UniProt Q13315); assay: Inhibition of ATM (unknown origin) preincubated with compound for 30 mins followed by substrate addition and measured after 2 hrs by HTRF method
HCT-116 [4] = assay: Inhibition of colony formation in human HCT-116 cells at 0.01 uM preincubated for 1 hr followed by exposure to 2 Gy gamma irradiation and measured after 1 week by crystal violet staining based […] assay relative to control; type: functional; details: HCT-116, light or radiation study, time 169 hrs
HCT-116 [5] = assay: Inhibition of colony formation in human HCT-116 cells assessed as assessed as fold change in IC50 in presence of ionizing radiation; type: functional
MCF7 [6] = assay: Synergistic antiproliferative activity against human MCF7 cells assessed as fold increase in etoposide IC50 at 200 nM measured after 6 days by MTT assay; type: functional; details: time 6 day
MCF7 [7] = assay: Synergistic antiproliferative activity against human MCF7 cells assessed as fold increase in irinotecan IC50 at 200 nM measured after 6 days by MTT assay; type: functional; details: time 6 day
SW-620 [8] = assay: Synergistic antiproliferative activity against human SW620 cells assessed as fold increase in irinotecan IC50 at 100 nM measured after 6 days by MTT assay; type: functional; details: time 6 day
SW-620 [9] = assay: Synergistic antiproliferative activity against human SW620 cells assessed as fold increase in irinotecan IC50 at 200 nM measured after 6 days by MTT assay; type: functional; details: time 6 day
HCT-116 [10] = assay: Induction of apoptosis in human HCT-116 cells assessed as viable cells at 4 uM measured after 2 days by AnnexinV-FITC/PI staining based analysis (reference value: 72.8%); type: functional; details: HCT-116, 48 h, time 2 day, read-out: Activity
HCT-116 [11] = assay: Induction of apoptosis in human HCT-116 cells assessed as late apoptotic cells at 1 uM measured after 2 days by AnnexinV-FITC/PI staining based analysis (reference value: 12.2%); type: functional; details: time 2 day
HCT-116 [12] = assay: Induction of apoptosis in human HCT-116 cells assessed as late apoptotic cells at 2 uM measured after 2 days by AnnexinV-FITC/PI staining based analysis (reference value: 12.2%); type: functional; details: time 2 day
HCT-116 [13] = assay: Induction of apoptosis in human HCT-116 cells assessed as necrotic cells at 1 uM measured after 2 days by AnnexinV-FITC/PI staining based analysis (reference value: 0.64%); type: functional; details: time 2 day
HCT-116 [14] = assay: Induction of apoptosis in human HCT-116 cells assessed as necrotic cells at 4 uM measured after 2 days by AnnexinV-FITC/PI staining based analysis (reference value: 0.64%); type: functional; details: time 2 day
HCT-116 [15] = assay: Induction of apoptosis in human HCT-116 cells assessed as viable cells at 1 uM measured after 2 days in presence of irinotecan by AnnexinV-FITC/PI staining based analysis (reference value: 72.8%); type: functional; details: HCT-116, 48 h, time 2 day, read-out: Activity
HCT-116 [16] = assay: Induction of apoptosis in human HCT-116 cells assessed as viable cells at 2 uM measured after 2 days in presence of irinotecan by AnnexinV-FITC/PI staining based analysis (reference value: 72.8%); type: functional; details: HCT-116, 48 h, time 2 day, read-out: Activity
HCT-116 [17] = assay: Induction of apoptosis in human HCT-116 cells assessed as early apoptotic cells at 1 uM measured after 2 days in presence of irinotecan by AnnexinV-FITC/PI staining based analysis (reference value: 14.4%); type: functional; details: time 2 day
HCT-116 [18] = assay: Induction of apoptosis in human HCT-116 cells assessed as early apoptotic cells at 2 uM measured after 2 days in presence of irinotecan by AnnexinV-FITC/PI staining based analysis (reference value: 14.4%); type: functional; details: time 2 day
HCT-116 [19] = assay: Induction of apoptosis in human HCT-116 cells assessed as necrotic cells at 1 uM measured after 2 days in presence of irinotecan by AnnexinV-FITC/PI staining based analysis (reference value: 0.64%); type: functional; details: time 2 day
HCT-116 [20] = assay: Induction of apoptosis in human HCT-116 cells assessed as necrotic cells at 4 uM measured after 2 days in presence of irinotecan by AnnexinV-FITC/PI staining based analysis (reference value: 0.64%); type: functional; details: time 2 day
HCT-116 [21] = assay: Induction of cell cycle arrest in human HCT-116 cells assessed as loss in accumulation of cells at G0/G1 phase at 1 to 4 uM measured after 48 hrs in presence of irinotecan by propidium iodide staining based flow cytometry analysis; type: functional; details: dose 1-4 µM
[22] = target: DNA-dependent protein kinase catalytic subunit (Homo sapiens, UniProt P78527); assay: Inhibition of DNA-PK (unknown origin) at 1 uM in presence of [gamma33P-ATP] by scintillation counting method relative to control
Chain of DNA-dependent protein kinase catalytic subunit (P78527 whole entry): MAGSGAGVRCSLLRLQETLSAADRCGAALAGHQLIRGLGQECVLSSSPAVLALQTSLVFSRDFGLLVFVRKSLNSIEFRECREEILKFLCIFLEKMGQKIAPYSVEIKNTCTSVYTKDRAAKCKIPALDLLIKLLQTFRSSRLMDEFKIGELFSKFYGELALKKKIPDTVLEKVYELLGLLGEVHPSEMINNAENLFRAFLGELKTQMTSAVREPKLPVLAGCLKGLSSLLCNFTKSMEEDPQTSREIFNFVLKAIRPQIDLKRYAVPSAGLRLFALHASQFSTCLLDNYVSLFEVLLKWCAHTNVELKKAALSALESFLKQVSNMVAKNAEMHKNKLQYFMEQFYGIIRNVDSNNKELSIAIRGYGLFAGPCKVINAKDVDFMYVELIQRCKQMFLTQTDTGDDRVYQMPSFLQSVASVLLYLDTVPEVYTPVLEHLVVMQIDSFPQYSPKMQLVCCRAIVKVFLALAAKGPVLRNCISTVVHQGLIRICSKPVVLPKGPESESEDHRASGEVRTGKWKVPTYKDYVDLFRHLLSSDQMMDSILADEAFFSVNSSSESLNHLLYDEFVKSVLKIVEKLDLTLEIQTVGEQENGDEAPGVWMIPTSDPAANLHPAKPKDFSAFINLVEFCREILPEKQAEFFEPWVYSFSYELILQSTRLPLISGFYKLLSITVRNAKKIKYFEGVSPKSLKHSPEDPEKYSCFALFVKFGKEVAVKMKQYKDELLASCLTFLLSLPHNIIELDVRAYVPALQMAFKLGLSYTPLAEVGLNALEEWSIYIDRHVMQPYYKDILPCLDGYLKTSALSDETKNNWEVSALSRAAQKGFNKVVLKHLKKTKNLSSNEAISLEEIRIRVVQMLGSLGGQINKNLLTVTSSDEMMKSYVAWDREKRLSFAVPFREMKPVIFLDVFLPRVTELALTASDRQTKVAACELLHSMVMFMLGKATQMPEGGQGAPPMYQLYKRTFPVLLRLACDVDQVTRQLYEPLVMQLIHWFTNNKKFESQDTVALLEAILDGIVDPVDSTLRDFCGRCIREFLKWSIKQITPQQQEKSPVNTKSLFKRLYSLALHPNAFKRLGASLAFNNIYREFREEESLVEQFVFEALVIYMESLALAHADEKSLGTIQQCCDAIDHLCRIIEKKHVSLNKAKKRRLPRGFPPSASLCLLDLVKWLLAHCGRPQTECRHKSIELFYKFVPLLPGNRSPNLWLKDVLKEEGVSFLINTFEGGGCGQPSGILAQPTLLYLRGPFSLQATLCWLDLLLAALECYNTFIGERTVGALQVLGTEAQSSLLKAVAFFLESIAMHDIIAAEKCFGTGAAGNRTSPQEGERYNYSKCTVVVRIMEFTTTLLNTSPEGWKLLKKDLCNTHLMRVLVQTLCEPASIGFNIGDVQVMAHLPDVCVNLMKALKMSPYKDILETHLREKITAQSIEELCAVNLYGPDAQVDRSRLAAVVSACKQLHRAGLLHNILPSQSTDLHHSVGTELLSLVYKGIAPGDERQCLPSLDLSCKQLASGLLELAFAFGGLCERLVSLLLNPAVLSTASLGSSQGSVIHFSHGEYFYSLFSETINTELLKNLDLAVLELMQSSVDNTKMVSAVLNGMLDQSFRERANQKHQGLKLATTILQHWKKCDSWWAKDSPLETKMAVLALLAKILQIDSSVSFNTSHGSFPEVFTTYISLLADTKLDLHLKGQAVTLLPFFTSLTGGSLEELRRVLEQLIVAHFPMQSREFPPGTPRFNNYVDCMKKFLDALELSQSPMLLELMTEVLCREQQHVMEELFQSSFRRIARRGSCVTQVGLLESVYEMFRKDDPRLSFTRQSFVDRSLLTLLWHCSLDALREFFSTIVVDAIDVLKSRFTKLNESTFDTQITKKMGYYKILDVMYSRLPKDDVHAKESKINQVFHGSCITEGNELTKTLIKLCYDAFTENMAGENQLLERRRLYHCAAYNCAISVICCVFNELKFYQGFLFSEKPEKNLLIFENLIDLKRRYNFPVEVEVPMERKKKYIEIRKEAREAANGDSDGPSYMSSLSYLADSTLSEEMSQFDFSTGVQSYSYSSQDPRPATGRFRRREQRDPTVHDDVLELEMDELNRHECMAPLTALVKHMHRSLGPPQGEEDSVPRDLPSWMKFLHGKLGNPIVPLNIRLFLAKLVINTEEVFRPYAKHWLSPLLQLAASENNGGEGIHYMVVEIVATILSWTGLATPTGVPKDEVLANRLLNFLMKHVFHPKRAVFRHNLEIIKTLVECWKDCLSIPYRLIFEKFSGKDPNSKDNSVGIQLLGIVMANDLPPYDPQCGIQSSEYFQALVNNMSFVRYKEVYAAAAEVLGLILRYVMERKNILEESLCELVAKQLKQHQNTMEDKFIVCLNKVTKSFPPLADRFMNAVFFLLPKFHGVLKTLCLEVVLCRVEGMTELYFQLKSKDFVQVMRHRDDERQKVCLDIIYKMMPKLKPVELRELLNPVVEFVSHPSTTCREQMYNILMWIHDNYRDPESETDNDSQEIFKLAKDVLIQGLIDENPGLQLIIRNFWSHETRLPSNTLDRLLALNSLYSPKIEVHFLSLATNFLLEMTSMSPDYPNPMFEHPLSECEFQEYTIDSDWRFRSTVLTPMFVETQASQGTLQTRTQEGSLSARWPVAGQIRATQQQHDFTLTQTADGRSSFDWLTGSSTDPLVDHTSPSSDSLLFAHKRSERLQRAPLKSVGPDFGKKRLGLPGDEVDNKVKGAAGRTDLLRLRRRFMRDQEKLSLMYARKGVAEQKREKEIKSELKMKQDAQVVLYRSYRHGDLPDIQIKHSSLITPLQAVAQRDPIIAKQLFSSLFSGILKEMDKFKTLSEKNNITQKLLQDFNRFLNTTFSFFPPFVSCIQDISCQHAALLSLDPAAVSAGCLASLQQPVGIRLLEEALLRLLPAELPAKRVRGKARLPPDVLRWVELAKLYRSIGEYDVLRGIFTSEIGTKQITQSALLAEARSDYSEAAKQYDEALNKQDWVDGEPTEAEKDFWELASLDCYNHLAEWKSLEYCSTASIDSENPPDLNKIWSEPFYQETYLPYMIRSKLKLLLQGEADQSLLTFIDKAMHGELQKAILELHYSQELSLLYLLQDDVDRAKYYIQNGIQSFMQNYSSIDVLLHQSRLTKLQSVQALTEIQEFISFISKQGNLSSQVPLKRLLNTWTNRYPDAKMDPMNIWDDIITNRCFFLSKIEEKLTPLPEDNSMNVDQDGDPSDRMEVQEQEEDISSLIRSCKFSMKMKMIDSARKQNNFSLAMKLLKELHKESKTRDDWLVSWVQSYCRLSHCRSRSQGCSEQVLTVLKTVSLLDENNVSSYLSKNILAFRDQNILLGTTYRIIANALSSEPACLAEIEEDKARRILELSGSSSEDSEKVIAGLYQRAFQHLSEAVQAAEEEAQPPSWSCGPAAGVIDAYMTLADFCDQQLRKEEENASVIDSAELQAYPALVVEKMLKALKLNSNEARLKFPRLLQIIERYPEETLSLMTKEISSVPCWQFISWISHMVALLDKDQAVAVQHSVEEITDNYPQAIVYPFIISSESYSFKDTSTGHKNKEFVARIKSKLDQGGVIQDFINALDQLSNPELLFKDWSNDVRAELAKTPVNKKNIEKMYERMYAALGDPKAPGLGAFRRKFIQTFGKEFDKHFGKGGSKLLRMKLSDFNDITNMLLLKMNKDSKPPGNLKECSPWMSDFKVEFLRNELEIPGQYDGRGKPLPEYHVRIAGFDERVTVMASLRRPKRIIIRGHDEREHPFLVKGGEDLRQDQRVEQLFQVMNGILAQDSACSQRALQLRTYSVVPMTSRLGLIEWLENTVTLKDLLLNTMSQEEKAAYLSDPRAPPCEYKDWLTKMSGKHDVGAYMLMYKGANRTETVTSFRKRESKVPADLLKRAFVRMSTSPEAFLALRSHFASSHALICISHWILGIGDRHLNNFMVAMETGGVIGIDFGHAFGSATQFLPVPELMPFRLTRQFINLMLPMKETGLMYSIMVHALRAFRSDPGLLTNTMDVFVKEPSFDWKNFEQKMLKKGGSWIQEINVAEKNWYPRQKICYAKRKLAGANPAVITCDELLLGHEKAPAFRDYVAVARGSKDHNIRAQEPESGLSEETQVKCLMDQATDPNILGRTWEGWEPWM

[23] = Apparent permeability of compound across apical to basal membrane in human Caco-2 cells; type: ADME, cell-based
[24] = Clearance in Balb/C mouse at 10 mg/kg,po measured upto 48 hrs by LC-MS/MS analysis; type: ADME, organism-based; details: in vivo
[25] = Volume of distribution at steady state in Balb/C mouse at 10 mg/kg,iv measured upto 48 hrs by LC-MS/MS analysis; type: ADME, organism-based; details: in vivo, read-out: Vdss
[26] = Volume of distribution at steady state in Balb/C mouse at 10 mg/kg,po measured upto 48 hrs by LC-MS/MS analysis; type: ADME, organism-based; details: in vivo
[27] = AUC (0 to t) in Balb/C mouse at 10 mg/kg,iv measured upto 48 hrs by LC-MS/MS analysis; type: ADME, organism-based; design: time < 48 hrs, dose 10 mg/kg, route iv; details: in vivo
SW-620 [28] = assay: Antitumor activity against human SW620 cells xenografted in BALB/c nude mouse model assessed as tumor growth inhibition at 40 mg/kg, po administered once daily for 3 days weekly for 21 days by caliper method; type: functional, organism-based; details: time 21.0 day
SW-620 [29] = assay: Antitumor activity against human SW620 cells xenografted in BALB/c nude mouse model assessed as tumor growth inhibition at 20 mg/kg, po administered once daily for 3 days weekly after irinotecan post treatment for 21 days by caliper method relative to control; type: functional; details: SW-620, 504 h, time 21 day, read-out: TGI
SW-620 [30] = assay: Antitumor activity against human SW620 cells xenografted in BALB/c nude mouse model assessed as tumor growth inhibition at 40 mg/kg, po administered once daily for 3 days weekly after irinotecan post treatment for 21 days by caliper method relative to control; type: functional; details: SW-620, 504 h, time 21 day, read-out: TGI
[31] = Toxicity in BALB/c nude mouse assessed as drug tolerance at 20 to 40 mg/kg, po administered once daily for 3 days weekly after irinotecan post treatment for 21 days in presence of irinotecan; type: organism-based; details: in vivo, 504 h, dose 20-40 mg/kg, time 21 day
SW-620 [32] = assay: Antitumor activity against human SW620 cells xenografted in BALB/c nude mouse model assessed as tumor growth inhibition administered orally once daily for 3 days weekly after irinotecan post treatment for 21 days by caliper method; type: functional, cell-based; details: dose 20-40 mg/kg, route po, time 21.0 day
HCT-116 [33] = assay: Induction of DNA damage in human HCT-116 cells assessed as reduction in ATM phosphorylation at S1981 residue at 0.5 to 2 uM measured after 4 hrs by Western blot analysis; type: functional, cell-based; details: dose 0.5-2 µM

SMILES: CC(C)NC(=O)N(C)c1cnc2ccc(-c3ccc(OCCCN4CCCCC4)nc3)cc2n1
- CLH [1]: 1.8 mL/min/g
- half-life at 1 µM [2]: 12.8 h
- IC50 [3]: 1.15 nM
- inhibition at 0.01 µM (HCT-116 [4]): 94.1%
- fold change (FC) (HCT-116 [5]): 750
- fold change (FC) (MCF7 [6]): 5.2
- fold change (FC) (MCF7 [7]): 15
- fold change (FC) (SW-620 [8]): 2.8
- fold change (FC) (SW-620 [9]): 4.5
- viability at 4 µM (HCT-116 [10]): 68.3%
- Activity (HCT-116 [11]): 12.6%
- Activity (HCT-116 [12]): 14.2%
- Activity (HCT-116 [13]): 1.01%
- Activity (HCT-116 [14]): 0.6%
- viability at 1 µM (HCT-116 [15]): 17.3%
- viability at 2 µM (HCT-116 [16]): 14%
- Activity (HCT-116 [17]): 49.9%
- Activity (HCT-116 [18]): 51.3%
- Activity (HCT-116 [19]): 2.39%
- Activity (HCT-116 [20]): 1.73%
- Activity (HCT-116 [21]): Active
- inhibition [22]: < 50%
- Papp A→B [23]: 10.2 nm/s
- CL/F [24]: 0.73 L/h/kg
- Vd [25]: 5.93 L/kg
- Vdss [26]: 3.52 L/kg
- AUCt [27]: 13.02701 µg·h/mL
- Activity (SW-620 [28]): inactive
- inhibition in vivo at 20 mg/kg (SW-620 [29]): 77.2%
- inhibition in vivo at 40 mg/kg (SW-620 [30]): 85.3%
- Activity [31]: Toxic
- Activity (SW-620 [32]): Dose-Dependent Effect
- Activity (HCT-116 [33]): Active
